According to US20030157101A1, “Immunogenic ALK peptides” (priority 2001, published 2003):
Values joined by “and” are separate entries in the source; they are usually repeats but may differ in a detail not shown here. Identical values can stand only once. “Also recorded” adds a separate entry of the source.

Tests used:
[1] = target: HLA-A*0201/peptide complexes (Homo sapiens, UniProt P04439, D140Y/D185E/D98H/E176V/E277Q/G131W/G231S/I119V/I121R/I166T/I218V/L300P/L318F/N151K/N90K/P208A/P217A/Q86G/Q94H/R138H/R169H/T345S); test: HLA-A*0201/peptide complex stability on T2 cells (DC50); format: binding; conditions: 100 μM peptide overnight, Brefeldin A, 37° C.
Method: To assess the HLA-A*0201/peptide complex stability, T2 cells (10^6/ml) were incubated overnight with 100 μM of each peptide in serum free RPMI 1640 supplemented with 100 ng/ml of human β2m at 37° C. Cells were then washed four times to remove free peptides, incubated for 1 hr with 10 μg/ml of Brefeldin A (Sigma-Aldrich, France) in order to block cell surface expression of newly synthesized HLA-A*0201 molecules, washed and incubated at 37° C. for 0, 2, 4, 6, or 8 hours. Subsequently, cells were stained with anti-HLA-A2.1 mAb BB7.2. For each time point, peptide induced HLA-A*0201 expression was calculated as: mean fluorescence value of peptide incubated T2 cells/mean fluorescence value T2 cells in the absence of the peptide.

[2] = tested on: HLA-A*0201 monochain transgenic (HHD) mice; test: In vivo immunogenicity of ALK-derived peptides in HHD mice (51Cr-release on peptide-pulsed RMA-S/HHD cells); conditions: for R/T HHD mice (responder versus tested mice): 100 μg peptide s.c. in IFA, responder = specific lysis at least 15% above lysis of unloaded RMA-S/HDD; for % lysis of peptide-loaded RMA-S/HHD cells: E:T ratio 60:1, maximal lysis observed for each responder mouse
[3] = tested on: healthy donor PBLs; test: Stimulation of ALK-specific CTLs from healthy donor PBLs; format: cell-based, human; conditions: three donors tested per peptide; lysis of peptide loaded T2 cells and NPM/ALK-positive lymphoma lines
Method: Blood was collected from HLA-A*0201 normal volunteer donors. PBMC were isolated from whole blood by Ficoll/Hypaque (Pharmacia, Uppsala, Sweden) density gradient centrifugation. Dendritic cells (DCs) were generated according to the protocol of Sallusto and Lanzavecchia (Sallusto F. et al., (1994) J Exp Med. 179: 1109-1118). Adherent monocyte-enriched peripheral blood mononuclear cells (PBMCs) were cultured in RPMI 1640 medium supplemented with 10% FCS, 20 ng/ml recombinant human interleukin (IL)-4 (R&D Systems, Minneapolis, Minn.) and 800 U/ml recombinant human granulocyte-macrophage colony-stimulating factor (GM-CSF) (Sandoz, Basel, Switzerland). On day 5 of culture, 10 ng/ml recombinant human tumor necrosis factor (TNF)-α (Knoll, Ludwigshafen, Germany) was added to the medium. After 40 hrs, the surface phenotype of monocyte-derived DCs was determined by single-color flow cytometry using the following mAbs: fluorescein-conjugated anti-CD1a ([…], Torino, Italy), anti-CD86 (CALTAG, Burlingame, Calif.), anti-CD83 (CALTAG, Burlingame, Calif.), anti-CD14 (Becton Dickinson) and rhodamine-conjugated anti-CD80 (Becton Dickinson). DCs were used to prime autologous PBL as follows. DCs were pulsed with 10 μM peptide for 2 hrs at 37° C., irradiated at 30 Gy and added to autologous PBLs at a ratio variable from 3:1 to 6:1 (PBL:DC). PBLs (36×10^6 total) were cultured at 1,5×10^6 cells/2ml of Culture Medium (CM: 50% RPMI 1640/50% X-VIVO (BioWhittaker, […], Mass.)) supplemented with 10% of heat-inactivated autologous plasma and 10 ng/ml IL-7 (R&D Systems, Minneapolis, Minn.) in the presence of autologous peptide-loaded DCs. At day 10-12 of culture, lymphocytes were restimulated with irradiated (30 Gy) autologous peptide-loaded monocytes in CM supplemented with 10% of heat-inactivated autologous plasma. After 24-48 hrs 10 IU/ml IL-2 (Chiron Co., Emeryville, Calif.) and 10 ng/ml IL-7 was added to the CM. Lymphocytes were then restimulated weekly in the same way. Starting from the forth round of stimulation, the specificity of the resulting T-cell lines was evaluated weekly in a cytolytic assay. When any specific activity was detected, CD8+ T-cells were isolated from the bulk culture by CD4+ cells negative depletion using mAb-coated beads (Dynal Dynabeads, Oxoid, Oslo, Norway) and the CTL lines were maintained in culture in RPMI 1640 containing 10% human AB serum supplemented with 50 U/ml IL-2 in the presence of irradiated (70 Gy) PBMCs as feeder. To prime ALK-specific lymphocytes, peptide-pulsed autologous dendritic cells (DCs) derived from peripheral blood mononuclear cells (PBMCs) were used after their in vitro maturation was confirmed by flow cytometric analysis of DC-specific cell surface markers. After a 3-4 week cycle of restimulation T lymphocyte specificity for ALK peptides was evaluated by determining antigen-restricted lysis of peptide loaded T2 cells (FIG. 1A) and NPM/ALK-positive lymphoma cell lines (FIG. 1B).

[4] = tested on: SK-N-SH (HLA-A2.1-/ALK+) and NB-5 (HLA-A2.1+/ALK-) cell lines; test: 51Cr release lysis of control neuroblastoma lines by peptide-specific CTLs; format: cell-based, human
Method: (§1) Cytolytic activity was measured in a conventional 4-hrs ^51Cr release assay. A 10-fold excess of unlabeled K562 cells was added to offset NK activity. Target cells and E:T ratio are indicated in each figure. Specific lysis was determined according to the following formula: % specific lysis=cpm (sample-spontaneous)/cpm (total-spontaneous)×100. HLA-A*0201 blocking of T-cell activity (lysis and/or citokine release) was performed by preincubating target cells with the anti-HLA-A2 mAb CR11.351. […] Because p280-89 and p376-85 peptides lie within the kinase domain, which is present in both native and translocated ALK, we used neuroblastoma cell lines as targets in cytotoxic experiments to further verify the natural processing of these two epitopes.

[5] = tested on: neuroblastoma cell line IMR-32; test: 51Cr release lysis of HLA-A2.1+/ALK+ neuroblastoma cells by peptide-specific CTLs; format: cell-based, human; conditions: IMR-32, treated with INF-γ before use
Method: as §1

[6] = tested on: anti-ALK specific CTLs; test: IFN-γ release assay with anti-ALK CTL lines (ELISA); format: cell-based, human; conditions: for Peptide concentration giving maximal IFN-γ production: titration on T2 cells, peptide-specific CTL lines; for IFN-γ released by p280-89 CTLs: p280-89 loaded autologous LCL
[7] = tested on: ALCL lymphoma cell lines SU-DHL1 and SUP-M2; test: 51Cr release lysis of NPM/ALK-expressing ALCL cell lines by peptide-specific CTLs; format: cell-based, human; conditions: SU-DHL1 and SUP-M2, HLA-A2.1+
Method: (§2) Cytolytic activity was measured in a conventional 4-hrs ^51Cr release assay. A 10-fold excess of unlabeled K562 cells was added to offset NK activity. Target cells and E:T ratio are indicated in each figure. Specific lysis was determined according to the following formula: % specific lysis=cpm (sample−spontaneous)/cpm (total−spontaneous)×100. HLA-A*0201 blocking of T-cell activity (lysis and/or citokine release) was performed by preincubating target cells with the anti-HLA-A2 mAb CR11.351.
(§3) Thus, it can be concluded that ALK peptide induced CTLs efficiently lyse lymphoma targets, in a HLA-A2 restricted fashion, by relevant antigen-specific recognition.

[8] = tested on: FM3 (melanoma), HCT-116 (colon carcinoma), MCF-7 (breast carcinoma); test: 51Cr release lysis of HLA-A2.1+/ALK- tumor lines by peptide-specific CTLs; format: cell-based, human; conditions: FM3, HCT-116, MCF-7
Method: as §2, §3

[9] = tested on: ALCL lymphoma cell lines SU-DHL1 and SUP-M2; conditions: cited from earlier work
[10] = target: T1, HLA-A*0201 molecules on TAP-deficient T2 cells (human); test: T2 cell HLA-A*0201 stabilisation, 100 uM peptide, flow cytometry with mAb BB7.2; mean of 4 experiments ± SEM
T1 construct: Peptide-receptive class I molecule on T2 cells; also called HLA-A2.1; HLA-A2
Method: T2 cells were incubated with 100 μM of peptide in serum-free RPMI 1640 supplemented with 5 μg/ml of human β₂m (Fluka, Buchs, Germany) for 18 hrs at 37° C.

[11] = target: T1, HLA-A*0201 molecules on TAP-deficient …; test: T2 cells loaded with 100 uM peptide, Brefeldin A, flow cytometry with BB7.2 over 0-8 h
Description: Subsequently, cells were stained with anti-HLA-A2.1 mAb BB7.2.

Molecule | DC50, half-life of disassociation of HLA-A*02.01/peptide complexes [1] | FI (Fluorescence Index) [10] | R/T HHD mice (responder versus tested mice) [2] | Donor response to peptide stimulation (specific CD8 reactivity) [3] | % lysis of peptide-loaded RMA-S/HHD cells [2] | also measured
GVLLWEIFSL (listed as Homo sapiens) [p376-85] |  |  | 3/6 | At least one out of the three donors tested were found to be responders | 24% and 15% | Lysis of HLA-A2.1-/ALK+ or HLA-A2.1+/ALK- neuroblastoma lines by peptide-specific CTLs [4]: No lysis was detected; Lysis of HLA-A2.1+/ALK+ neuroblastoma cells by peptide-specific CTLs [5]: efficiently lysed; Lysis of HLA-A2.1+/ALK+ neuroblastoma cells by peptide-specific CTLs ([5]; listed as p375-86): recognize and kill; IFN-γ released by p376-85 CTLs ([6]; donor one, p376-85 pulsed T2 cells, 5 μM peptide): 674 IU/ml; Peptide concentration giving maximal IFN-γ production [6]: 100 nM; Lysis of NPM/ALK-expressing ALCL cell lines by peptide-specific CTLs [7]: efficiently recognize and lyse; also recorded: killed these tumor lines; Lysis of HLA-A2.1+/ALK- tumor lines by peptide-specific CTLs [8]: no activity was detected; also recorded: No lysis above background level
LAMLDLLHV (listed as Homo sapiens) [p281-89] |  |  | 2/6 | No specific CD8 reactivity was detected | 42% and 34% | 
SLAMLDLLHV (listed as Homo sapiens) [p280-89] |  |  | 3/6 | At least one out of the three donors tested were found to be responders |  | CTL cytotoxicity against NPM/ALK-positive lymphoma cell lines [9]: stimulate CTL cytotoxicity; Lysis of HLA-A2.1-/ALK+ or HLA-A2.1+/ALK- neuroblastoma lines by peptide-specific CTLs [4]: No lysis was detected; Lysis of HLA-A2.1+/ALK+ neuroblastoma cells by peptide-specific CTLs [5]: recognize and kill; also recorded: efficiently lysed; IFN-γ released by p280-89 CTLs ([6]; donor three, 5 μM peptide): 750 IU/ml; IFN-γ released by p280-89 CTLs ([6]; donor two, 5 μM peptide): 445 IU/ml; Peptide concentration giving maximal IFN-γ production [6]: 10 nM; Lysis of NPM/ALK-expressing ALCL cell lines by peptide-specific CTLs [7]: efficiently recognize and lyse; also recorded: killed these tumor lines; Lysis of HLA-A2.1+/ALK- tumor lines by peptide-specific CTLs [8]: no activity was detected; also recorded: No lysis above background level
SLAMLDLLHV (Lies within the ALK kinase domain) [ALK peptide p280-89 (SLAMLDLLHV)] |  | 5.6 ratio (sample / irrelevant-peptide control) |  |  |  | DC50 (half-life of dissociation of HLA-A*0201/peptide complexes) [11]: 4 hs (hours)
AMLDLLHVA [ALK peptide p282-90 (AMLDLLHVA)] |  | 5.4 ratio (sample / irrelevant-peptide control) |  |  |  | 
LAMLDLLHV [ALK peptide p281-89 (LAMLDLLHV)] |  | 3.5 ratio (sample / irrelevant-peptide control) |  |  |  | DC50 (half-life of dissociation of HLA-A*0201/peptide complexes) [11]: 2 hs (hours)
GVLLWEIFSL (also called p375-86) [ALK peptide p376-85 (GVLLWEIFSL)] |  | 2.8 ratio (sample / irrelevant-peptide control) |  |  |  | DC50 (half-life of dissociation of HLA-A*0201/peptide complexes) [11]: 6 hs (hours)

Continued, in another order:

DC50, half-life of disassociation of HLA-A*02.01/peptide complexes [1] | FI (Fluorescence Index) [10] | Molecule | R/T HHD mice (responder versus tested mice) [2] | Donor response to peptide stimulation (specific CD8 reactivity) [3] | % lysis of peptide-loaded RMA-S/HHD cells [2] | also measured
2 to 4 h |  | ALPIEYGPLV (listed as Homo sapiens) [p456-65] | 2/6 | At least one out of the three donors tested were found to be responders |  | 
4 to 6 h |  | AMLDLLHVA (listed as Homo sapiens) [p282-90] | 3/6 | No specific CD8 reactivity was detected | 80% and 56% and 50% | 
4 to 6 h |  | SLTANMKEV (listed as Homo sapiens) [p621-29] | 2/6 | No specific CD8 reactivity was detected | 63% and 53% | 
4 to 6 h |  | VLLWEIFSL (listed as Homo sapiens) [p377-85] | 3/6 | At least one out of the three donors tested were found to be responders |  | 
 | 4.2 ratio (sample / irrelevant-peptide control) | ALPIEYGPLV (Downstream of the kinase domain) [ALK peptide p456-65 (ALPIEYGPLV)] |  |  |  | 
 | 3 ratio (sample / irrelevant-peptide control) | VLLWEIFSL [ALK peptide p377-85 (VLLWEIFSL)] |  |  |  | 
